{"source": "ChEMBL document CHEMBL5154799", "about": "“Discovery of a Novel Stilbene Derivative as a Microtubule Targeting Agent Capable of Inducing Cell Ferroptosis” (J Med Chem, 2022)", "key": {"A549 [1]": {"system": "A549", "experiment": "Induction of cell death in human A549 cells assessed as vanished mitochondrial cristae at 10 nM for 12 hrs by TEM analysis", "assay_type": "functional, cell-based"}, "[2]": {"experiment": "Resistance index, ratio of IC50 for antiproliferative activity against human vincristine-resistant HCT-8/VCR cells to IC50 for antiproliferative activity against HCT-8 cells", "assay_type": "functional"}, "A549 [3]": {"system": "A549", "experiment": "Induction of ferroptosis in human A549 cells assessed as accumulation of intracellular ROS incubated for 24 hrs by DCFH-DA staining based fluorescence microscopy", "assay_type": "functional, cell-based", "conditions": "dose 5-10 nM, DDE = dose-dependent effect"}, "A549 [4]": {"system": "A549", "experiment": "Antiproliferative activity against human A549 cells assessed as cell viability incubated for 48 hrs by MTT assay", "assay_type": "functional, cell-based", "conditions": "A549, 48 h"}, "A549 [5]": {"system": "A549", "experiment": "Antiproliferative activity against human A549 cells assessed as inhibition of cell proliferation incubated for 2 hrs by CCK-8 assay", "assay_type": "functional, cell-based", "conditions": "DDE = dose-dependent effect"}, "MCF7": {"system": "MCF7", "experiment": "Antiproliferative activity against human MCF7 cells assessed as inhibition of cell proliferation incubated for 2 hrs by CCK-8 assay", "assay_type": "functional, cell-based", "conditions": "DDE = dose-dependent effect"}, "LoVo": {"system": "LoVo", "experiment": "Antiproliferative activity against human LoVo cells assessed as inhibition of cell proliferation incubated for 2 hrs by CCK-8 assay", "assay_type": "functional, cell-based", "conditions": "DDE = dose-dependent effect"}, "PC-3": {"system": "PC-3", "experiment": "Antiproliferative activity against human PC-3 cells assessed as inhibition of cell proliferation incubated for 2 hrs by CCK-8 assay", "assay_type": "functional, cell-based", "conditions": "DDE = dose-dependent effect"}, "[6]": {"experiment": "Cytotoxicity against human MCF-10A cells assessed as reduction in cell viability", "assay_type": "toxicity, cell-based"}, "[7]": {"experiment": "Selectivity ratio of IC50 for cytotoxicity against HLF cells assessed as reduction in cell viability to IC50 for cytotoxicity against human A549 cells assessed as reduction in cell viability", "assay_type": "toxicity, cell-based", "conditions": "HLF cells versus A549 cells"}, "[8]": {"experiment": "Selectivity ratio of IC50 for cytotoxicity against human MCF-10A cells assessed as reduction in cell viability to IC50 for cytotoxicity against human A549 cells assessed as reduction in cell viability", "assay_type": "toxicity, cell-based", "conditions": "MCF-10A cells versus A549 cells"}, "A549 [9]": {"system": "A549", "experiment": "Antiproliferative activity against human adriamycin-resistant A549/ADR cells assessed as cell viability incubated for 48 hrs by MTT assay", "assay_type": "functional, cell-based", "conditions": "A549, 48 h"}, "A549 [10]": {"system": "A549", "experiment": "Resistance index, ratio of IC50 for antiproliferative activity against human adriamycin-resistant A549/ADR cells to IC50 for antiproliferative activity against human A549 cells", "assay_type": "functional"}, "HCT-8": {"system": "HCT-8", "experiment": "Antiproliferative activity against human vincristine-resistant HCT-8/VCR cells assessed as cell viability incubated for 48 hrs by MTT assay", "assay_type": "functional, cell-based", "conditions": "HCT-8, 48 h"}, "A2780": {"system": "A2780", "experiment": "Antiproliferative activity against human paclitaxel-resistant A2780/TAX cells assessed as cell viability incubated for 48 hrs by MTT assay", "assay_type": "functional, cell-based", "conditions": "A2780, 48 h"}, "Tubulin (Homo sapiens) [11]": {"molecular_target": "T1, Tubulin (Homo sapiens) (UniProt P68371+Q9H4B7+P0DPH7+P68366+Q13509+Q71U36+P04350+Q3ZCM7+P07437+P68363+Q9BQE3+Q6PEY2+Q13885+Q9BVA1+Q9BUF5)", "experiment": "Inhibition of [3H]colchicine binding to tubulin (unknown origin) at 5 uM by competitive binding assay relative to control", "assay_type": "protein-complex assay"}, "Tubulin (Homo sapiens) [12]": {"molecular_target": "T1, Tubulin (Homo sapiens)", "experiment": "Inhibition of [3H]colchicine binding to tubulin (unknown origin) at 10 uM by competitive binding assay relative to control", "assay_type": "protein-complex assay"}, "Tubulin": {"molecular_target": "Tubulin", "experiment": "Inhibition of [3H]colchicine binding to tubulin (unknown origin) by competitive binding assay", "assay_type": "protein-complex assay, Homo sapiens"}, "A549 [13]": {"system": "A549", "experiment": "Cell cycle arrest in human A549 cells assessed as increase in accumulation in G2/M phase incubated for 24 to 48 hrs by PI staining based flow cytometry analysis", "assay_type": "functional", "conditions": "dose 5-20 nM, time 24-48 hrs, DDE = dose-dependent effect"}, "A549 [14]": {"system": "A549", "experiment": "Cell cycle arrest in human A549 cells assessed as downregulation of Cdc2 expression at 5 to 20 nM incubated for 24 to 48 hrs by Western blot analysis", "assay_type": "functional, cell-based", "conditions": "dose 5-20 nM, time 24-48 hrs"}, "A549 [15]": {"system": "A549", "experiment": "Cell cycle arrest in human A549 cells assessed as downregulation of Cdc25C expression at 5 to 20 nM incubated for 24 to 48 hrs by Western blot analysis", "assay_type": "functional, cell-based", "conditions": "dose 5-20 nM, time 24-48 hrs"}, "A549 [16]": {"system": "A549", "experiment": "Induction of apoptosis in human A549 cells assessed as early apoptotic cells at 200 nM after 24 hrs by annexin V-FITC/PI staining based flow cytometry analysis relative to control", "assay_type": "functional"}, "A549 [17]": {"system": "A549", "experiment": "Induction of apoptosis in human A549 cells assessed as cell viability pretreated with ferroptosis inhibitor ferrostatin-1 for 24 hrs followed by incubation with compound at 20 nM and measured after 48 hrs by CCK-8 assay", "assay_type": "functional, cell-based"}, "A549 [18]": {"system": "A549", "experiment": "Induction of cell death in human A549 cells assessed as increased mitochondrial membrane density at 10 nM for 12 hrs by TEM analysis", "assay_type": "functional, cell-based"}, "A549 [19]": {"system": "A549", "experiment": "Induction of ferroptosis in human A549 cells assessed as depletion of GSH levels at 10 nM upto 12 hrs", "assay_type": "functional, cell-based"}, "[20]": {"molecular_target": "T2, Phospholipid hydroperoxide glutathione peroxidase GPX4 (Homo sapiens) (UniProt P36969)", "T2 sequence (whole entry)": "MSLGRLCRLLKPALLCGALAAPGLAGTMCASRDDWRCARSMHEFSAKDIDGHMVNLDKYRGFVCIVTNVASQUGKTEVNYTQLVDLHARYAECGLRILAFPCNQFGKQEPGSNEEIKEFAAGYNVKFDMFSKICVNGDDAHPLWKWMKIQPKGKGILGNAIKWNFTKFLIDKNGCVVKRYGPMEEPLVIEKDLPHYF", "experiment": "Inhibition of GPX4 in human A549 cells assessed as decrease in GPX4 protein […] at 5 to 20 uM for 24 hrs by Western blotting analysis", "assay_type": "cell-based", "conditions": "dose 5-20 µM"}, "[21]": {"experiment": "Acute oral toxicity in rat assessed as survival at 17.5 to 175 mg/kg measured over 8 hours daily for 14 days", "assay_type": "organism-based", "conditions": "in vivo, 336 h, dose 17.5-175 mg/kg, time 14 day"}, "[22]": {"experiment": "Acute oral toxicity in rat assessed as death at 550 mg/kg measured over 8 hours daily for 14 days", "assay_type": "organism-based", "conditions": "in vivo, 336 h, time 14 day"}, "[23]": {"experiment": "Acute toxicity in rat assessed as median lethal dose after at 175 to 550 mg/kg for 14 days", "assay_type": "organism-based", "conditions": "in vivo, dose 175-550 mg/kg, time 14 day"}, "[24]": {"experiment": "MRT in ICR mouse at 10 mg/kg, po single administration measured for 24 hrs post treatment by LC-MS/MS analysis", "assay_type": "ADME, organism-based", "conditions": "in vivo"}, "[25]": {"experiment": "Clearance in ICR mouse at 1 mg/kg, iv single administration measured for 24 hrs post treatment by LC-MS/MS analysis", "assay_type": "ADME, organism-based", "conditions": "in vivo"}, "A549 [26]": {"system": "A549", "experiment": "In vivo antitumor activity against human A549 cells xenografted in athymic nude BALB/c mouse assessed as tumor volume at 10 mg/kg measured after 30 days (reference value: 1503.3 mm^3)", "assay_type": "functional", "conditions": "time 30 day"}, "[27]": {"experiment": "Toxicity in athymic nude BALB/c mouse assessed as body weight loss at 10 mg/kg, ip measured for 30 days", "assay_type": "organism-based", "conditions": "in vivo, 720 h, time 30 day"}, "[28]": {"experiment": "Toxicity in human A549 cells xenografted in athymic nude BALB/c nude mouse assessed as morphological changes in heart at 10 mg/kg, ip measured after 30 days by H and E staining based histological analysis", "assay_type": "organism-based", "conditions": "in vivo, 720 h, time 30 day"}, "Tubulin (Homo sapiens) [29]": {"molecular_target": "T1, Tubulin (Homo sapiens)", "experiment": "Induction of microtubule disruption in human A549 cells assessed as abnormal chromosomes at 5 to 20 uM incubated for 12 hrs by immunofluorescence based laser scanning confocal microscopic analysis", "assay_type": "cell-based", "conditions": "dose 5-20 µM"}}, "note": "The source made the active and inactive calls. The calls are words filed in the database; no cut-off is given here.", "data": [{"smiles": "C=C(c1cc(OC)c(OC)c(OC)c1)c1ccc(OC)c(O)c1NC(=O)CO", "values": [{"measurement": "Activity", "setting": "A549 [1]", "value": "Active"}, {"measurement": "Ratio IC50", "setting": "[2]", "value": 1.75}, {"measurement": "Activity", "setting": "A549 [3]", "value": "Dde"}, {"measurement": "IC50", "setting": "A549 [4]", "value": 0.01, "unit": "µM"}, {"measurement": "Activity", "setting": "A549 [5]", "value": "Dde"}, {"measurement": "Activity", "setting": "MCF7", "value": "Dde"}, {"measurement": "Activity", "setting": "LoVo", "value": "Dde"}, {"measurement": "Activity", "setting": "PC-3", "value": "Dde"}, {"measurement": "IC50", "setting": "[6]", "value": 0.54, "unit": "µM"}, {"measurement": "selectivity ratio", "setting": "[7]", "value": 135}, {"measurement": "selectivity ratio", "setting": "[8]", "value": 54}, {"measurement": "IC50", "setting": "A549 [9]", "value": 0.02, "unit": "µM"}, {"measurement": "Ratio IC50", "setting": "A549 [10]", "value": 2}, {"measurement": "IC50", "setting": "HCT-8", "value": 0.07, "unit": "µM"}, {"measurement": "IC50", "setting": "A2780", "value": 0.04, "unit": "µM"}, {"measurement": "inhibition", "setting": "Tubulin (Homo sapiens) [11]", "value": 78.5, "unit": "%"}, {"measurement": "inhibition", "setting": "Tubulin (Homo sapiens) [12]", "value": 85, "unit": "%"}, {"measurement": "IC50", "setting": "Tubulin", "value": 1.13, "unit": "µM"}, {"measurement": "Activity", "setting": "A549 [13]", "value": "Dde"}, {"measurement": "Activity", "setting": "A549 [14]", "value": "Active"}, {"measurement": "Activity", "setting": "A549 [15]", "value": "Active"}, {"measurement": "Activity", "setting": "A549 [16]", "value": 50.36, "unit": "%"}, {"measurement": "Activity", "setting": "A549 [17]", "value": "Active"}, {"measurement": "Activity", "setting": "A549 [18]", "value": "Active"}, {"measurement": "Activity", "setting": "A549 [19]", "value": "Active"}, {"measurement": "Activity", "setting": "[20]", "value": "Active"}, {"measurement": "Activity", "setting": "[21]", "value": "Non-Toxic"}, {"measurement": "Activity", "setting": "[22]", "value": "Toxic"}, {"measurement": "LD50 at 336 h", "setting": "[23]", "value": 327, "unit": "mg/kg"}, {"measurement": "MRT", "setting": "[24]", "value": 2.57, "unit": "h"}, {"measurement": "clearance", "setting": "[25]", "value": 47.6, "unit": "mL/min/kg"}, {"measurement": "Activity", "setting": "A549 [26]", "value": 321.1, "unit": "mm3"}, {"measurement": "Activity", "setting": "[27]", "value": "Non-Toxic"}, {"measurement": "Activity", "setting": "[28]", "value": "Non-Toxic"}, {"measurement": "Activity", "setting": "Tubulin (Homo sapiens) [29]", "value": "Active"}]}]}
